Data published in the supplement of paper PMC10307832.

Key:
Test in all cases: relative viability (nuclei count vs DMSO), 5 days (fraction); higher = more cells survive
Cediranib + Pictilisib = compound: COc1cc2c(Oc3ccc4[nH]c(C)cc4c3F)ncnc2cc1OCCCN1CCCC1 [Cediranib] + CS(=O)(=O)N1CCN(Cc2cc3nc(-c4cccc5[nH]ncc45)nc(N4CCOCC4)c3s2)CC1 [Pictilisib] (partner 1 µM)
Procedure, shortened: (§1)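 Lung cancer cell lines were seeded in 1536-well plates and dosed by pin tool the next day, with either a single drug or a fixed anchor-drug dose combined with five library-drug doses (not always all listed) spaced in √10 steps. Five days later, one step fixed the cells and stained their nuclei (final 0.05% Triton X-100, 1% formaldehyde, 1 ug/ml Hoechst), and nuclei were counted on 4× images. Relative viability is the nuclei count in treated wells divided by the count in vehicle wells, and each value is the median of duplicate plates.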

Decitabine + Navitoclax = compound: Nc1ncn([C@H]2C[C@H](O)[C@@H](CO)O2)c(=O)n1 [Decitabine] + CC1(C)CCC(c2ccc(Cl)cc2)=C(CN2CCN(c3ccc(C(=O)NS(=O)(=O)c4ccc(N[C@H](CCN5CCOCC5)CSc5ccccc5)c(S(=O)(=O)C(F)(F)F)c4)cc3)CC2)C1 [Navitoclax] (partner 0.5 µM)
Procedure, shortened: as §1

Cediranib + Luminespib = compound: COc1cc2c(Oc3ccc4[nH]c(C)cc4c3F)ncnc2cc1OCCCN1CCCC1 [Cediranib] + CCNC(=O)c1noc(-c2cc(C(C)C)c(O)cc2O)c1-c1ccc(CN2CCOCC2)cc1 [Luminespib] (partner 0.01 µM)
Procedure, shortened: as §1

Decitabine + Tozasertib = compound: Nc1ncn([C@H]2C[C@H](O)[C@@H](CO)O2)c(=O)n1 [Decitabine] + Cc1cc(Nc2cc(N3CCN(C)CC3)nc(Sc3ccc(NC(=O)C4CC4)cc3)n2)n[nH]1 [Tozasertib] (partner 0.1 µM)
Procedure, shortened: as §1

Row | Cell Line | relative viability (Cediranib + Pictilisib; first compound 0.04 µM) | relative viability (Cediranib + Pictilisib; first compound 0.4 µM) | relative viability (Cediranib + Pictilisib; first compound 1.265 µM) | relative viability (Cediranib + Pictilisib; first compound 4 µM) | relative viability (Decitabine + Navitoclax; first compound 0.04 µM) | relative viability (Decitabine + Navitoclax; first compound 0.1265 µM) | relative viability (Decitabine + Navitoclax; first compound 0.4 µM) | relative viability (Decitabine + Navitoclax; first compound 1.265 µM) | relative viability (Decitabine + Navitoclax; first compound 4 µM) | relative viability (Cediranib + Luminespib; first compound 0.04 µM) | relative viability (Cediranib + Luminespib; first compound 0.1265 µM) | relative viability (Cediranib + Luminespib; first compound 0.4 µM) | relative viability (Cediranib + Luminespib; first compound 1.265 µM) | relative viability (Cediranib + Luminespib; first compound 4 µM) | relative viability (Decitabine + Tozasertib; first compound 0.04 µM) | relative viability (Decitabine + Tozasertib; first compound 0.1265 µM) | relative viability (Decitabine + Tozasertib; first compound 0.4 µM) | relative viability (Decitabine + Tozasertib; first compound 1.265 µM) | relative viability (Decitabine + Tozasertib; first compound 4 µM) | relative viability (Cediranib + Pictilisib; first compound 0.1265 µM)
1 | NCI-H1395 | 0.58 | 0.593 | 0.557 | 0.591 | 0.913 | 0.733 | 0.715 | 0.598 | 0.703 | 0.787 | 0.569 | 0.734 | 0.754 | 0.535 | 0.549 | 0.517 | 0.487 | 0.445 | 0.453 | 
2 | NCI-H1437 | 0.484 | 0.442 | 0.228 | 0.499 | 0.768 | 0.676 | 0.371 | 0.271 | 0.27 | 1.15 | 1.05 | 1.04 | 1.1 | 1.13 | 0.358 | 0.363 | 0.281 | 0.201 | 0.17 | 0.413
3 | NCI-H1650 | 0.61 | 0.494 | 0.468 | 0.383 | 0.546 | 0.482 | 0.434 | 0.329 | 0.295 | 0.192 | 0.161 | 0.179 | 0.197 | 0.173 | 0.247 | 0.297 | 0.289 | 0.169 | 0.193 | 0.234
4 | NCI-H1651 | 0.666 | 0.533 | 0.458 | 0.445 | 0.893 | 1.03 | 0.958 | 0.684 | 0.876 | 0.763 | 0.751 | 0.786 | 0.861 | 0.892 | 0.521 | 0.718 | 0.6 | 0.378 | 0.371 | 0.77
5 | NCI-H1666 | 0.383 | 0.422 | 0.5 | 0.431 | 0.85 | 0.776 | 0.687 | 0.465 | 0.487 | 1.05 | 1.04 | 1.05 | 0.981 | 1.07 | 0.514 | 0.577 | 0.615 | 0.502 | 0.517 | 0.475
6 | NCI-H1734 | 0.457 | 0.54 | 0.365 | 0.47 | 0.583 | 0.57 | 0.424 | 0.268 | 0.246 | 0.238 | 0.185 | 0.208 | 0.208 | 0.176 | 0.265 | 0.246 | 0.221 | 0.206 | 0.192 | 0.541
7 | NCI-H1755 | 0.329 | 0.415 | 0.392 | 0.396 | 0.912 | 0.887 | 0.696 | 0.521 | 0.302 | 0.556 | 0.419 | 0.403 | 0.232 | 0.467 | 0.525 | 0.538 | 0.473 | 0.372 | 0.357 | 0.349
8 | NCI-H1793 | 0.404 | 0.345 |  | 0.299 | 0.356 | 0.406 | 0.333 | 0.227 | 0.169 | 0.182 | 0.176 | 0.224 |  | 0.201 | 0.288 | 0.335 | 0.247 | 0.226 | 0.207 | 0.294
